Test results published in patent US20250040539A1, “COMPOSITION COMPRISING AN ANTIMICROBIAL AGENT AND A CARBOXAMIDE” (BASF SE, priority 2021, published 2025).

Key:
[1] = system: bacterial mix: Escherichia coli DSM 1576, Alcaligenes faecalis DSM 13644, Pseudomonas aeuginosa ATCC 15442, Staphylococcus aureus ATCC 6538, Burkholderia …; experiment: Preservative activity of a basic composition (10% PG in water, pH 7) with 2-phenoxyethanol against bacterial contamination (Example 2.1); format: cell-based; settings: 10% PG + 0.36% PE + 0.04% amide; for d7 [CFU/ml]: day 7; for d14 [CFU/ml]: day 14; for d21 [CFU/ml]: day 21
Procedure: An aqueous composition of pH 7 comprising 10% by weight of propyleneglycol (PG) as organic solvent, 0.36% by weight of 2-phenoxyethanol (PE) as antimicrobial and 0.04% by weight of the amide listed in the below table was tested for its preserving activity against bacterial contamination (the weight percentages relate to the total weight of the composition). For this purpose, the samples were contaminated with a bacterial mix consisting of: • Escherichia coli DSM 1576 • Alcaligenes faecalis DSM 13644 • Pseudomonas aeuginosa ATCC 15442 • Staphylococcus aureus ATCC 6538 • Burkholderia cepacia DSM 7288 • Pseudomonas putida DSM 12735
The samples were inoculated with the bacterial mix at day 0, 7 and 14 to obtain 10E+06 to 10E+07 CFU/ml inoculation in the test samples (compositions listed in the below table) consisting of 10% by weight of propylene glycol in water and stored at 25° C. for 21 days.
(§1) CFU was determined before re-inoculation at days 7 and 14, and on day 21.

[2] = system: fungal mix (including yeasts and molds): Aspergillus brasiliensis DSM 1988, Rhodotorula mucilaginosa DSM 13621, Yarrowia lipolytica DSM 8218; experiment: Preservative activity of a basic composition (10% PG in water, pH 7) with 2-phenoxyethanol against fungal contamination (Example 1.1); format: cell-based; settings: 10% PG + 0.36% PE + 0.04% Amide in water, pH 7, 25° C.; for d7 [CFU/ml]: fungal mix inoculated at day 0, 7 and 14 (1-3x10E+05 CFU/ml), day 7 before re-inoculation; for d14 [CFU/ml] / d21 [CFU/ml]: fungal mix inoculated at day 0, 7 and 14; for d14 [CFU/ml]: day 14 before re-inoculation; for d21 [CFU/ml]: day 21
Procedure: An aqueous composition of pH 7 comprising 10% by weight of propyleneglycol (PG) as organic solvent, 0.36% by weight of 2-phenoxyethanol (PE) as antimicrobial and 0.04% by weight of the amide listed in the below table was tested for its preserving activity against fungal contamination (the percentages are weight percent and relate to the total weight of the composition). For this purpose, the samples were contaminated with a fungal mix (including yeasts and molds) consisting of: • Aspergillus brasiliensis DS M 1988 • Rhodotorula mucilaginosa DSM 13621 • Yarrowia lipolytica DS M 8218
To control the efficacy, following control compositions were tested: • “Reference”, consisting of only 10% by weight of propylene glycol in water • “Comparative 1” containing 10% by weight of propylene glycol and amide in the given concentration, but no 2-phenoxyethanol • […] in the given concentration, but no amide.
The samples were inoculated with the fungal mix at day 0, 7 and 14 to obtain a cell density in the range of 1-3×10E+05 CFU/ml (CFU=colony forming units) in the test samples (compositions listed in the below table) and stored at 25° C. for 21 days.
as §1

| Compound | d7 [CFU/ml] [1] | d14 [CFU/ml] [1] | d21 [CFU/ml] [1] | d7 [CFU/ml] [2] | d14 [CFU/ml] [2] | d21 [CFU/ml] [2] |
| --- | --- | --- | --- | --- | --- | --- |
| CCCCCC(CCC)C(=O)N(C)C (stereo not drawn) [2-Propyl-heptanoyl-N,N-dimethylamide] | <10 CFU/ml | 90 CFU/ml | 2,700 CFU/ml | – | – | – |
| CCCCCC(CCC)C(=O)N(C)C (stereo not drawn) [2-Propylheptanoyl-N,N-dimethylamide] | – | – | – | 5,200 CFU/ml | 3,250 CFU/ml | 8,000 CFU/ml |
| CCCCCCCCCCCC(=O)N(C)C [Dodecanoyl-N,N-dimethylamide] | <10 CFU/ml | <10 CFU/ml | 450 CFU/ml | 25 CFU/ml | 170 CFU/ml | 245 CFU/ml |
| CCCCCCN(CCCCCC)C(C)=O [Ethanoyl-N,N-dihexylamide] | 75 CFU/ml | 200 CFU/ml | 1,450 CFU/ml | 3,100 CFU/ml | 2,750 CFU/ml | 2,450 CFU/ml |
| CC(CC(=O)N(C)C)CC(C)(C)C (stereo not drawn) [Isononanoyl-N,N-dimethylamide] | 3,850 CFU/ml | 13,500 CFU/ml | 5,000 CFU/ml | 3,600 CFU/ml | 3,350 CFU/ml | 15,000 CFU/ml |
